Data published in US9687467B2, “Diagnosis and treatment of taxane-resistant cancers” (Children's Medical Center Corporation, priority 2011, dated 2017).

Key:
A549 cells = assay: cells; assay type: cell-based; settings: Homo sapiens, A549, read-out: median LC50
Description: (§1) The paclitaxel-resistant cell lines MES-SA^DX5 and A549^TR were transfected with a scrambled non-targeting miRNA (control) and an miR-135a mimic (mimic), respectively. Cells were subsequently treated with 100 nM paclitaxel and cell viability was assessed using the MTT assay (FIGS. 2A, 2B). The percentage of apoptotic cells was assessed by Annexin V-staining and FACS analysis (FIGS. 2C, 2D). Values are presented as percent cell survival in paclitaxel-treated cells relative to untreated cells. *P<0.05, **P<0.001 as determined by Wilcoxon's rank sum test.
(§2) FIGS. 4A-4E are a series of micrographs and line graphs showing that miR-135a-mediated APC suppression contributes to paclitaxel resistance. […] Transfected A549 (FIG. 4B) and MES-SA (FIG. 4C) cells were treated with paclitaxel and viability was assessed using the MTT assay. […] (FIG. 4E) Both A549-shCON and -shAPC cells were treated with paclitaxel and cell viability was measured using the MTT assay. […]
(FIG. 7A). The parental A549 cells, a cell line that became refractory during in vivo treatment with paclitaxel (T20.2 round 1) and the same cell line established after yet another round of in vivo paclitaxel treatment (T20.2 reinjection) were treated with paclitaxel and cell viability was assessed using the MTT assay. […] (FIG. 7B) The expression of miR-135a was examined in these cells by qRT-PCR. *P<0.05 as determined by Wilcoxon's rank sum test. […]

MES-SA cells = assay: MTT cell viability assay, paclitaxel response; assay type: cell-based, human; settings: 100 nM paclitaxel for 72 h
Description: as §1
as §2, with “resistance. MES-SA and A549 cells were mock-transfected (mock), transfected with a scrambled siRNA (siControl) or with siRNA directed against APC (siAPC).” for “resistance.”
Cell growth inhibition was determined by a 3-(4,5-dimethylthiazol-2-yl)-2,5-diphenyltetrazolium (MTT) bromide assay. […] Absorbance was determined using a 96-well SpectraMax plate reader (Molecular Devices, Sunnyvale, Calif.) at 560 nm and 650 nm (background). […]

**Q.** CC(=O)O[C@H]1C(=O)[C@@]2(C)[C@H]([C@H](OC(=O)c3ccccc3)[C@]3(O)C[C@H](OC(=O)[C@H](O)[C@@H](NC(=O)c4ccccc4)c4ccccc4)C(C)=C1C3(C)C)[C@]1(OC(C)=O)CO[C@@H]1C[C@@H]2O [paclitaxel] was tested. Which CC50 (A549 cells) did it give?
**A.** 1.14 nM

**Q.** What about the cell survival (MES-SA cells) of the same compound?
**A.** 21.8%
